Data: ChEMBL document CHEMBL4017474, “A calcineurin antifungal strategy with analogs of FK506” (Bioorg Med Chem Lett, 2017)
Calls of active or inactive are those of the source. No cut-off for these calls is given here.

Tests used:
[1] = test system: Aspergillus fumigatus; test: Antifungal activity against Aspergillus fumigatus assessed as spore germination at 12.5 ug/ml measured after 48 hrs in presence of FK506 by broth dilution method relative to control; assay type: functional
[2] = AUClast in mouse at 3 mg/kg, iv; assay type: ADME, organism-based; parameters: dose 3 mg/kg, time 0 - last, route intravenous; conditions: in vivo
[3] = Volume of distribution at steady state in mouse at 3 mg/kg, iv; assay type: ADME, organism-based; conditions: in vivo, read-out: Vdss
[4] = test system: Aspergillus fumigatus; test: Permeability across Aspergillus fumigatus at 12.5 ug/ml relative to human PBMC; assay type: ADME
[5] = Clearance in mouse at 3 mg/kg, iv; assay type: ADME, organism-based; conditions: in vivo
[6] = test system: HepG2; test: Cytotoxicity against human HepG2 cells; assay type: cell-based
[7] = Tmax in mouse at 10 mg/kg, po; assay type: ADME, organism-based; conditions: in vivo
[8] = Cmax in mouse at 10 mg/kg, po; assay type: ADME, organism-based; parameters: dose 10 mg/kg, route oral; conditions: in vivo
[9] = test system: Jurkat; test: Immunosuppressive activity in PMA/ionomycin stimulated human Jurkat T cells assessed as suppression of IL2 production pretreated for 15 to 30 mins followed by PMA/ionomycin addition measured after 18 to 20 hrs by ELISA; assay type: cell-based
[10] = biological target: T1, Peptidyl-prolyl cis-trans isomerase FKBP1A (Homo sapiens, UniProt P62942); test: (§1) Antagonist activity at recombinant human N-terminal His6-tagged FKBP12 expressed in Escherichia coli assessed as inhibition of FKBP12 binding to calcineurin at 5 uL using […] pretreated for 1 hr followed by substrate addition measured after 1 hr by biomol green dye based spectrophotometric method
T1 sequence (P62942 whole entry): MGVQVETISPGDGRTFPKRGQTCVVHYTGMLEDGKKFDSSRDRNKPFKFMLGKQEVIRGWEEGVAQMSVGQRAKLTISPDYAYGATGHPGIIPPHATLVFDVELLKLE

[11] = Terminal half-life in mouse at 3 mg/kg, iv; assay type: ADME, organism-based; conditions: in vivo, read-out: beta t1/2 (converted)
[12] = AUClast in mouse at 10 mg/kg, po; assay type: ADME, organism-based; parameters: dose 10 mg/kg, time 0 - last, route oral; conditions: in vivo
[13] = test system: PBMC; test: Reversal of FK506-induced inhibition of cell proliferation in concanavalin A stimulated human PBMC at 1 uM measured after 72 hrs by CellTiter-Glo assay relative to control; assay type: functional; parameters: scale not given: the % may be the effect or the level left
[14] = test system: PBMC; test: Antiproliferative activity against concanavalin A stimulated human PBMC at 1 to 2 ug/ml measured after 72 hrs by CellTiter-Glo assay; assay type: cell-based
[15] = test system: Vero 76; test: Cytotoxicity against African green monkey Vero 76 cells; assay type: cell-based; conditions: Chlorocebus sabaeus
[16] = biological target: T1, Peptidyl-prolyl cis-trans isomerase FKBP1A; test: Antagonist activity at human FKBP12 measured after 30 mins by fluorescein labelled SLF tracer based fluorescence polarization assay
[17] = test system: Aspergillus fumigatus; test: Antifungal activity against Aspergillus fumigatus up to 25 ug/ml measured after 48 hrs by broth dilution method; assay type: functional
[18] = test system: PBMC; test: Reversal of FK506-induced inhibition of cell proliferation in concanavalin A stimulated human PBMC at 0.1 uM measured after 72 hrs by CellTiter-Glo assay; assay type: functional, cell-based
[19] = test system: Aspergillus fumigatus; test: Antifungal activity against Aspergillus fumigatus assessed as spore germination at 6.25 to 25 ug/ml measured after 48 hrs in presence of FK506 by broth dilution method; assay type: functional
[20] = biological target: T1, Peptidyl-prolyl cis-trans isomerase FKBP1A; test: as §1, with “of FK506 mediated” for “of”, “calcineurin” for “calcineurin at 5 uL”
[21] = Antagonist activity at Aspergillus fumigatus FKBP12 measured after 30 mins by fluorescein labelled SLF tracer based fluorescence polarization assay

Row | IC50 [9] [µM] | inhibition [10] | IC50 [16] [nM] | IC50 [20] [nM] | Compound | Activity [1] | IC50 [6] [µM] | Activity [13] [%] | Activity [14] | IC50 [15] [µM] | Activity [17] | also measured
1 | > 10 | inactive | 22.6 | – | CO[C@H]1C[C@@H](C)C/C(C)=C/[C@@H](CC(=O)N2CCCC2)C(=O)C[C@H](O)[C@@H](C)[C@@H](/C(C)=C/[C@@H]2CC[C@@H](OC(=O)N3CC(O)C3)[C@H](OC)C2)OC(=O)[C@@H]2CCCCN2C(=O)C(=O)[C@]2(O)O[C@H]1[C@@H](OC)C[C@H]2C | 22% | > 100 | 63 | Non-Toxic | > 100 | inactive | AUC(0-t) [2]: 2780 ng·h/mL; Vd [3]: 1.35 L/kg; permeability [4]: 75%; clearance [5]: 16.1 mL/min/kg; Tmax [7]: 30 min; Cmax [8]: 814 ng/mL; half-life [11]: 81.6 min; AUC(0-t) [12]: 1860 ng·h/mL
2 | > 10 | inactive | 19.1 | – | CO[C@H]1C[C@@H](C)C/C(C)=C/[C@@H](CCCC(=O)N2CCN(C)CC2)C(=O)C[C@H](O)[C@@H](C)[C@@H](/C(C)=C/[C@@H]2CC[C@@H](OCCO)[C@H](OC)C2)OC(=O)[C@@H]2CCCCN2C(=O)C(=O)[C@]2(O)O[C@H]1[C@@H](OC)C[C@H]2C | 24 - 42% | > 100 | 67.8 | Non-Toxic | > 100 | inactive | Activity [18]: inactive; Activity [19]: Active
3 | > 10 | inactive | 14.3 | 850 | CO[C@H]1C[C@@H](C)C/C(C)=C/[C@@H](CCCC(=O)NCCc2ccccn2)C(=O)C[C@H](O)[C@@H](C)[C@@H](/C(C)=C/[C@@H]2CC[C@@H](O)[C@H](OC)C2)OC(=O)[C@@H]2CCCCN2C(=O)C(=O)[C@]2(O)O[C@H]1[C@@H](OC)C[C@H]2C | 31% | > 100 | 36.6 | Non-Toxic | > 100 | inactive | –
4 | > 10 | inactive | 11.2 | 1290 | CO[C@H]1C[C@@H](C)C/C(C)=C/[C@@H](CCCC(=O)N2CCN(Cc3ccccn3)CC2)C(=O)C[C@H](O)[C@@H](C)[C@@H](/C(C)=C/[C@@H]2CC[C@@H](O)[C@H](OC)C2)OC(=O)[C@@H]2CCCCN2C(=O)C(=O)[C@]2(O)O[C@H]1[C@@H](OC)C[C@H]2C | 47.4% | > 100 | 88.3 | Non-Toxic | > 100 | inactive | –
5 | > 10 | inactive | 19.2 | – | CO[C@H]1C[C@@H](C)C/C(C)=C/[C@@H](CCN(C)C)C(=O)C[C@H](O)[C@@H](C)[C@@H](/C(C)=C/[C@@H]2CC[C@@H](O)[C@H](OC)C2)OC(=O)[C@@H]2CCCCN2C(=O)C(=O)[C@]2(O)O[C@H]1[C@@H](OC)C[C@H]2C | 54.3% | > 100 | 105.6 | Non-Toxic | > 100 | inactive | –
6 | > 10 | inactive | 6.8 | 1310 | CC[C@@H]1/C=C(\C)C(O)[C@H](C)C[C@H](OC)[C@H]2O[C@@](O)(C(=O)C(=O)N3CCCC[C@H]3C(=O)O[C@H](/C(C)=C/[C@@H]3CC[C@@H](O)[C@H](OC)C3)[C@H](C)[C@@H](O)CC1=O)[C@H](C)C[C@@H]2OC (stereo partly specified) | 83 - 86.8% | > 100 | 78.7 | Non-Toxic | > 100 | inactive | AUC(0-t) [2]: 787 ng·h/mL; Vd [3]: 2.58 L/kg; clearance [5]: 60.8 mL/min/kg; Tmax [7]: 15 min; Cmax [8]: 184 ng/mL; Activity [18]: inactive; IC50 [21]: 18.5 nM; Activity [19]: inactive; half-life [11]: 66.6 min; AUC(0-t) [12]: 208 ng·h/mL
7 | > 10 | inactive | 12.6 | 1810 | CO[C@H]1C[C@@H](C)C/C(C)=C/[C@@H](/C=C/CCCC(=O)N2CCNCC2)C(=O)C[C@H](O)[C@@H](C)[C@@H](/C(C)=C/[C@@H]2CC[C@@H](O)[C@H](OC)C2)OC(=O)[C@@H]2CCCCN2C(=O)C(=O)[C@]2(O)O[C@H]1[C@@H](OC)C[C@H]2C | 36.5% | > 100 | 27.5 | Non-Toxic | > 100 | inactive | –
8 | > 10 | inactive | 12.5 | 1110 | CO[C@H]1C[C@@H](C)C/C(C)=C/[C@@H](CCCC(=O)N2CC(O)C2)C(=O)C[C@H](O)[C@@H](C)[C@@H](/C(C)=C/[C@@H]2CC[C@@H](O)[C@H](OC)C2)OC(=O)[C@@H]2CCCCN2C(=O)C(=O)[C@]2(O)O[C@H]1[C@@H](OC)C[C@H]2C | 24% | > 100 | 49.9 | Non-Toxic | > 100 | inactive | –
9 | > 10 | inactive | 11.5 | 824 | CO[C@H]1C[C@@H](C)C/C(C)=C/[C@@H](CCCC(=O)NCCN2CCOCC2)C(=O)C[C@H](O)[C@@H](C)[C@@H](/C(C)=C/[C@@H]2CC[C@@H](O)[C@H](OC)C2)OC(=O)[C@@H]2CCCCN2C(=O)C(=O)[C@]2(O)O[C@H]1[C@@H](OC)C[C@H]2C | 39.7% | > 100 | 45.9 | Non-Toxic | > 100 | inactive | –
10 | > 10 | inactive | 9.52 | 1080 | CO[C@H]1C[C@@H](C)C/C(C)=C/[C@@H](CCCC(=O)N2CC(N3CCOCC3)C2)C(=O)C[C@H](O)[C@@H](C)[C@@H](/C(C)=C/[C@@H]2CC[C@@H](O)[C@H](OC)C2)OC(=O)[C@@H]2CCCCN2C(=O)C(=O)[C@]2(O)O[C@H]1[C@@H](OC)C[C@H]2C | 49.6% | > 100 | 49.3 | Non-Toxic | > 100 | inactive | IC50 [21]: 12.8 nM
11 | > 10 | inactive | 13.4 | 989 | CO[C@H]1C[C@@H](C)C/C(C)=C/[C@@H](CCCC(=O)N(CCO)CCO)C(=O)C[C@H](O)[C@@H](C)[C@@H](/C(C)=C/[C@@H]2CC[C@@H](O)[C@H](OC)C2)OC(=O)[C@@H]2CCCCN2C(=O)C(=O)[C@]2(O)O[C@H]1[C@@H](OC)C[C@H]2C | 35.7% | > 100 | 36.2 | Non-Toxic | > 100 | inactive | IC50 [21]: 22.5 nM
12 | > 10 | inactive | 22.1 | – | CO[C@H]1C[C@@H](C)C/C(C)=C/[C@@H](CC(=O)N2CCCC2)C(=O)C[C@H](O)[C@@H](C)[C@@H](/C(C)=C/[C@@H]2CC[C@@H](O)[C@H](OC)C2)OC(=O)[C@@H]2CCCCN2C(=O)C(=O)[C@]2(O)O[C@H]1[C@@H](OC)C[C@H]2C | 90.5% | > 100 | – | Non-Toxic | > 100 | inactive | AUC(0-t) [2]: 2140 ng·h/mL; Vd [3]: 1.01 L/kg; clearance [5]: 22.8 mL/min/kg; half-life [11]: 42.8 min
13 | > 10 | inactive | 23.6 | – | CO[C@H]1C[C@@H](C)C/C(C)=C/[C@@H](CCCC(=O)N2CCC(CO)CC2)C(=O)C[C@H](O)[C@@H](C)[C@@H](/C(C)=C/[C@@H]2CC[C@@H](OCCO)[C@H](OC)C2)OC(=O)[C@@H]2CCCCN2C(=O)C(=O)[C@]2(O)O[C@H]1[C@@H](OC)C[C@H]2C | 24% | > 100 | 81.7 | Non-Toxic | > 100 | inactive | permeability [4]: 75%
14 | > 10 | inactive | 11 | 1740 | CC[C@@H]1/C=C(\C)C[C@H](C)C[C@H](OC)[C@H]2O[C@@](O)(C(=O)C(=O)N3CCCC[C@H]3C(=O)O[C@H](/C(C)=C/[C@@H]3CC[C@@H](OC(=O)N4CCN(C)CC4)[C@H](OC)C3)[C@H](C)[C@@H](O)CC1=O)[C@H](C)C[C@@H]2OC | 68% | > 100 | 79.8 | Non-Toxic | > 100 | inactive | –
